Data on 1 compound can be found in ChEMBL document CHEMBL3352169, “Fragment-based hit discovery and structure-based optimization of aminotriazoloquinazolines as novel Hsp90 inhibitors” (Bioorg Med Chem, 2014).

Data set [1] can be described thus: Permeability across apical to basolateral side in human Caco2 cells. Type of data set: ADME, cell-based. Particulars: Caco-2. On the technique in general: Passage across Caco-2 layers is used to estimate intestinal permeability.
Data set [2] can be described thus: Intrinsic clearance in human liver microsomes. Particulars: read-out: CLH. The format is ADME. (In general: Liver microsomes are vesicles of endoplasmic reticulum, rich in cytochrome P450 enzymes.)
Data set [3] in a line: Intrinsic clearance in rat liver microsomes. The format is ADME. Particulars: read-out: CLH.
Data set [4] can be described thus: Clearance in mouse at 5 mg/kg, iv. The format is ADME, organism-based. The arrangement: dose 5 mg/kg, route intravenous. Conditions: in vivo.
Data set [5] in a line: Oral bioavailability in mouse at 5 mg/kg. Type of data set: ADME, organism-based. Particulars: in vivo.

As usually defined, the Papp A→B is the apparent permeability from the apical to the basolateral side of a cell layer. Usually clearance stands for a measure of how efficiently the substance is removed, as volume per time. Lower therefore signals inefficient removal. The term bioavailability denotes dose-corrected exposure relative to a reference, in per cent. Read a high bioavailability as good availability. Take `OCCCNc1ccc2c(c1)nc(-c1ccc3c(c1)OCO3)n1ncnc21`: in data set [1], the Papp A→B was 65.4 ×10⁻⁶ cm/s. For the same compound, the CLint scaled in data set [2] worked out at 29.2 mL/min/kg; in data set [3] it was 600 mL/min/kg. In addition, in data set [4], the clearance stood at 132 mL/min/kg. The compound further displayed a bioavailability in data set [5] of 1.5%.
